Laboratory results reported in article PMC6151762, “Halogenated 1-Hydroxynaphthalene-2-Carboxanilides Affecting Photosynthetic Electron Transport in Photosystem II” (Molecules : A Journal of Synthetic Chemistry and Natural …, 2017).
Values joined by “and” are separate entries in the source; they are usually repeats but may differ in a detail not shown here. Equal entries are not always repeated. Where two headings read alike, the source gives them in different places.

Columns and labels:
[1] = tested on: photosynthetic electron transport (PET) in spinach chloroplasts; parameters: method as in Gonec et al. [11]; conditions: compounds 1-7 published earlier, ref Gonec et al. [11], read-out: PET Inhibition IC50; cited from earlier work
[2] = Aqueous solubility (qualitative); type: physicochemical; conditions: compared with 2,5-, 2,6-, 3,4- and 3,5-disubstituted derivatives
[3] = tested on: photosynthetic electron transport (PET) in spinach chloroplasts; assay: Inhibition of photosynthetic electron transport (PET) in spinach chloroplasts (DCPIP photoreduction); type: biochemical, Spinacia oleracea L.; conditions: chlorophyll 30 mg/L
Protocol: Chloroplasts were prepared from spinach (Spinacia oleracea L.) according to Masarovicova and Kralova. The inhibition of photosynthetic electron transport (PET) in spinach chloroplasts was determined spectrophotometrically (Genesys 6, Thermo Scientific, USA), using an artificial electron acceptor 2,6-dichlorophenol-indophenol (DCIPP) according to Kralova et al., and the rate of photosynthetic electron transport was monitored as photoreduction of DCPIP. The measurements were carried out in phosphate buffer (0.02 M, pH 7.2) containing sucrose (0.4 M), MgCl2 (0.005 M) and NaCl (0.015 M). The chlorophyll content was 30 mg/L in these experiments, and the samples were irradiated (~100 W/m^2 with 10 cm distance) with a halogen lamp (250 W) using a 4-cm water filter to prevent warming of the samples (suspension temperature 22 °C). The studied compounds were dissolved in DMSO due to their limited water solubility. […] The inhibitory efficiency of the studied compounds was expressed by IC50 values, i.e., by molar concentration of the compounds causing a 50% decrease in the […] relative to the untreated control.

[4] = tested on: chlorophyll a (Chla) in pigment-protein complexes in PS II; assay: Fluorescence of chlorophyll a in spinach chloroplasts; type: biochemical, Spinacia oleracea L.; conditions: with increasing concentration (c = 0, 56, 220, 431 μM); λex = 436 nm; chlorophyll 10 mg/L
Protocol: (§1) The fluorescence emission spectra of chlorophyll a (Chla) and aromatic amino acids in spinach chloroplasts were recorded on fluorescence spectrophotometer F-2000 (Hitachi, Tokyo, Japan) using excitation wavelength λex = 436 nm for monitoring the fluorescence of Chla and λex = 275 nm for monitoring the fluorescence of aromatic amino acids, excitation slit 20 nm and emission slit 10 nm. The samples were kept in the dark for 2 min prior to the measurement. The phosphate buffer used for dilution of the chloroplast suspension was the same as described above. Due to low aqueous solubility, the compounds were added to a chloroplast suspension in DMSO solution. The DMSO concentration in all samples was the same as in the control (10%). The chlorophyll concentration in chloroplast suspension was 10 mg/L.

[5] = tested on: aromatic amino acids (AAA) in photosynthetic proteins situated mainly in PS II; assay: Fluorescence of aromatic amino acids in spinach chloroplasts; type: biochemical, Spinacia oleracea L.; conditions: with increasing concentration (c = 0-47.2 μM); λex = 275 nm; chlorophyll 10 mg/L
Protocol: as §1

| Compound | IC50 [3] | melting point | other results |
| --- | --- | --- | --- |
| O=C(Nc1ccccc1)c1ccc2ccccc2c1O [Compound 1] | – | – | IC50 [1]: 31.3 µM |
| O=C(Nc1ccccc1Cl)c1ccc2ccccc2c1O [Compound 2] | – | – | IC50 [1]: 29.4 µM |
| O=C(Nc1cccc(Cl)c1)c1ccc2ccccc2c1O [Compound 3] | – | – | IC50 [1]: 7.9 µM |
| O=C(Nc1ccc(Cl)cc1)c1ccc2ccccc2c1O [Compound 4] | – | – | IC50 [1]: 10.8 µM |
| O=C(Nc1ccccc1Br)c1ccc2ccccc2c1O [Compound 5] | – | – | IC50 [1]: 61.9 µM |
| O=C(Nc1cccc(Br)c1)c1ccc2ccccc2c1O [Compound 6] | – | – | IC50 [1]: 8.2 µM |
| O=C(Nc1ccc(Br)cc1)c1ccc2ccccc2c1O [Compound 7] | – | – | IC50 [1]: 9.6 µM |
| O=C(Nc1cc(Cl)c(Cl)cc1Cl)c1ccc2ccccc2c1O [Compound 14, 1-Hydroxy-N-(2,4,5-trichlorophenyl)naphthalene-2-carboxamide] | 153 µM | – | – |
| O=C(Nc1ccc(Br)cc1Br)c1ccc2ccccc2c1O [Compound 17, N-(2,4-Dibromophenyl)-1-hydroxynaphthalene-2-carboxamide] | 505 µM | 185 to 188 °C | aqueous solubility [2]: limited aqueous solubility |
| O=C(Nc1c(Br)cccc1Br)c1ccc2ccccc2c1O [Compound 19, N-(2,6-Dibromophenyl)-1-hydroxynaphthalene-2-carboxamide] | 78 µM | 212 to 216 °C | – |
| O=C(Nc1c(Br)cc(Br)cc1Br)c1ccc2ccccc2c1O [Compound 20, 1-Hydroxy-N-(2,4,6-tribromophenyl)naphthalene-2-carboxamide] | 45 µM | 115 to 118 °C | – |
| CN(C)C(=O)Nc1ccc(Cl)c(Cl)c1 [DCMU, 3-(3,4-dichlorophenyl)-1,1-dimethylurea, reference compound] | ~1.9 µM and 1.9 µM | – | – |

Further lines, with some results ahead:

| IC50 [3] | melting point | Compound | other results |
| --- | --- | --- | --- |
| 235 µM | – | O=C(Nc1cccc(Cl)c1Cl)c1ccc2ccccc2c1O [Compound 8, N-(2,3-Dichlorophenyl)-1-hydroxynaphthalene-2-carboxamide] | aqueous solubility [2]: limited aqueous solubility |
| 531 µM | – | O=C(Nc1ccc(Cl)cc1Cl)c1ccc2ccccc2c1O [Compound 9, N-(2,4-Dichlorophenyl)-1-hydroxynaphthalene-2-carboxamide] | aqueous solubility [2]: limited aqueous solubility |
| 59.6 µM | – | O=C(Nc1cc(Cl)ccc1Cl)c1ccc2ccccc2c1O [Compound 10, N-(2,5-Dichlorophenyl)-1-hydroxynaphthalene-2-carboxamide] | – |
| 100 µM | – | O=C(Nc1c(Cl)cccc1Cl)c1ccc2ccccc2c1O [Compound 11, N-(2,6-Dichlorophenyl)-1-hydroxynaphthalene-2-carboxamide] | – |
| 13.3 µM | – | O=C(Nc1ccc(Cl)c(Cl)c1)c1ccc2ccccc2c1O [Compound 12, N-(3,4-Dichlorophenyl)-1-hydroxynaphthalene-2-carboxamide] | – |
| 5.2 µM | – | O=C(Nc1cc(Cl)cc(Cl)c1)c1ccc2ccccc2c1O [Compound 13, N-(3,5-Dichlorophenyl)-1-hydroxynaphthalene-2-carboxamide] | – |
| 10.6 µM | – | O=C(Nc1c(Cl)cc(Cl)cc1Cl)c1ccc2ccccc2c1O [Compound 15, 1-Hydroxy-N-(2,4,6-trichlorophenyl)naphthalene-2-carboxamide] | – |
| 8 µM | – | O=C(Nc1cc(Cl)c(Cl)c(Cl)c1)c1ccc2ccccc2c1O [Compound 16, 1-Hydroxy-N-(3,4,5-trichlorophenyl)naphthalene-2-carboxamide] | – |
| 7.6 µM | 198 to 200 °C | O=C(Nc1cc(Br)ccc1Br)c1ccc2ccccc2c1O [Compound 18, N-(2,5-Dibromophenyl)-1-hydroxynaphthalene-2-carboxamide] | – |
| 278 µM | 182 to 184 °C | O=C(Nc1ccc(Cl)cc1Br)c1ccc2ccccc2c1O [Compound 21, N-(2-Bromo-4-chlorophenyl)-1-hydroxynaphthalene-2-carboxamide] | aqueous solubility [2]: limited aqueous solubility |
| 171 µM | 186 to 187 °C | O=C(Nc1ccc(Br)cc1Cl)c1ccc2ccccc2c1O [Compound 22, N-(4-Bromo-2-chlorophenyl)-1-hydroxynaphthalene-2-carboxamide] | aqueous solubility [2]: limited aqueous solubility |
| 60.3 µM | 178 to 180 °C | O=C(Nc1cc(Br)ccc1Cl)c1ccc2ccccc2c1O [Compound 23, N-(5-Bromo-2-chlorophenyl)-1-hydroxynaphthalene-2-carboxamide] | intensity of Chla fluorescence emission band at 686 nm [4]: gradual decrease; AAA fluorescence at 334 nm [5]: quenching of AAA fluorescence at 334 nm was observed |
| 6.7 µM | 203 to 205 °C | O=C(Nc1ccc(Br)c(Cl)c1)c1ccc2ccccc2c1O [Compound 24, N-(4-Bromo-3-chlorophenyl)-1-hydroxynaphthalene-2-carboxamide] | – |
